Like-named read-outs stand apart in the source and are kept apart here.
What was measured:
[1] = tested on: CDC1551(rv2390c′::GFP) reporter Mtb strain, response to high [Cl−]; assay: microbe, parasite or virus in culture; assay type: cell-based, Mycobacterium tuberculosis; conditions: Mycobacterium tuberculosis, 144 h; for activity at 20 µM: read-out: rv2390c'::GFP validation assay NPA% at 20 µM compound
[2] = tested on: CDC1551(rv1405c′::GFP) reporter Mtb strain; assay: microbe, parasite or virus in culture; assay type: cell-based, Mycobacterium tuberculosis; conditions: Mycobacterium tuberculosis; for activity at 10 µM: read-out: rv1405c'::GFP secondary assay NPA% at 10 µM compound; for activity at 20 µM: read-out: rv1405c'::GFP secondary assay NPA% at 20 µM compound
[3] = pH 6.4, […], DMSO positive control = 100%, read-out: Primary screen rv2390c'::GFP NPA%
[4] = 10 µM, pH 6.4, 250 mM NaCl, 6 days, read-out: rv2390c'::GFP validation assay NPA% at 10 µM compound

| SMILES | activity at 10 µM [1, 3] | activity at 10 µM [1, 4] | activity at 20 µM ([1]; pH 6.4, 250 mM NaCl, 6 days) | activity at 10 µM [2] | activity at 20 µM [2] |
| --- | --- | --- | --- | --- | --- |
| CCN(CC)c1ccc2c(NC3CCCCC3)nc(=O)oc2c1 [RU-0196346, CCN(CC)C1=CC2=C(C=C1)C(NC1CCCCC1)=NC(=O)O2] | 183% | 161 ± 6.2% | 192 ± 12.4% | 110 ± 13% | 115 ± 9.5% |
| Cc1ccc(NC(=O)[C@@H]2CCCN2S(=O)(=O)c2ccccc2F)cc1 [RU-0270461, CC1=CC=C(NC(=O)[C@@H]2CCCN2S(=O)(=O)C2=C(F)C=CC=C2)C=C1] | 151% | 116 ± 6.6% | 168 ± 4% | 98.1 ± 2.7% | 159 ± 7.6% |
| Cc1ccc(-n2nc(C)c3c(=O)[nH]c(C(F)(F)F)nc32)cc1 [RU-0271306, CC1=NN(C2=C1C(=O)NC(=N2)C(F)(F)F)C1=CC=C(C)C=C1] | 40.8% | 30.6 ± 2.4% | 36.6 ± 3.4% | 37.3 ± 1.3% | 11.5 ± 4.6% |
| CC(NC(=O)C1Cc2cc(Cl)ccc2O1)c1ccc(F)c(F)c1 (stereo not shown) [RU-0272361, CC(NC(=O)C1CC2=C(O1)C=CC(Cl)=C2)C1=CC(F)=C(F)C=C1] | 162% | 152 ± 9% | 215 ± 14% | 83.2 ± 14.8% | 107 ± 4.9% |
| COc1ccc2c(c1)OCC(C(=O)C(C#N)c1nc3ccccc3o1)C2 (stereo not shown) [RU-0202553, COC1=CC2=C(CC(CO2)C(=O)C(C#N)C2=NC3=C(O2)C=CC=C3)C=C1] | 189% | 131 ± 13.6% | 249 ± 22.5% | 136 ± 12.3% | 402 ± 46.5% |
| CC(SCc1cc(=O)n2nc(N)[nH]c2n1)c1ccccc1Cl (stereo not shown) [RU-0182827, CC(SCC1=CC(=O)N2N=C(N)NC2=N1)C1=C(Cl)C=CC=C1] | 11.2% | 13.3 ± 4.2% | 20 ± 4.4% | 6.6 ± 1.1% | 9.7 ± 3.1% |
| CC(CNC(=O)Nc1cccc(-c2noc(=O)[nH]2)c1)c1ccccc1 (stereo not shown) [RU-0182956, CC(CNC(=O)NC1=CC(=CC=C1)C1=NOC(=O)N1)C1=CC=CC=C1] | 48.1% | 66.7 ± 2.4% | 39 ± 3.5% | 38.3 ± 1.6% | 9.7 ± 1.2% |
| CC1(C)CC2CC(C)(CN2CC(O)COc2ccc(F)cc2Cl)C1 (stereo not shown) [RU-0218667, CC12CC(CC(C)(C)C1)N(CC(O)COC1=C(Cl)C=C(F)C=C1)C2] | 154% | 118 ± 1.5% | 173 ± 5.5% | 129 ± 4.5% | 233 ± 4.2% |
| CC(C)c1cc(C2CCN(C(=O)c3nc(C(C)C)cs3)CC2)[nH]n1 [RU-0259583, CC(C)C1=CSC(=N1)C(=O)N1CCC(CC1)C1=CC(=NN1)C(C)C] | 156% | 103 ± 2.6% | 130 ± 8.6% | 81.6 ± 6.6% | 99.6 ± 21.4% |
| Cc1ccc(NC(=O)c2cc(C)n(C3CC3)c2C)c(C)c1 [RU-0276186, CC1=CC(C(=O)NC2=C(C)C=C(C)C=C2)=C(C)N1C1CC1] | 159% | 105 ± 5.3% | 157 ± 13.8% | 95.4 ± 4.5% | 123 ± 13.3% |
| CCc1nc(C(=O)Nc2nc(C#N)c(C#N)[nH]2)nn1-c1ccccc1Cl [RU-0208082, CCC1=NC(=NN1C1=C(Cl)C=CC=C1)C(=O)NC1=NC(C#N)=C(N1)C#N] | 309% | 258 ± 15.1% | 380 ± 38.2% | 418 ± 56.2% | 677 ± 106% |
| C(=C\c1ccccc1)/Cn1nnc(-c2cccs2)n1 [RU-0207924, C(\C=C\C1=CC=CC=C1)N1N=NC(=N1)C1=CC=CS1] | 152% | 114 ± 1.5% | 137 ± 4% | 97.4 ± 8.8% | 125 ± 16.3% |
| Cc1ccc(-c2nc3nc(N)n(C)c(=O)c3nc2-c2ccc(C)cc2)cc1 [RU-0192424, CN1C(N)=NC2=NC(C3=CC=C(C)C=C3)=C(N=C2C1=O)C1=CC=C(C)C=C1] | 160% | 140 ± 10.1% | 169 ± 12.3% | 97 ± 3.1% | 120 ± 9.3% |
| COc1ccc2c(C)cc(Nc3cc(F)ccc3C)nc2c1 [RU-0202188, COC1=CC2=C(C=C1)C(C)=CC(NC1=C(C)C=CC(F)=C1)=N2] | 159% | 128 ± 12.2% | 132 ± 17.8% | 206 ± 10.4% | 256 ± 16.6% |
| CCOC(=O)C(C)Sc1nc2c(cnn2-c2ccccc2)c(=O)[nH]1 (stereo not shown) [RU-0212119, CCOC(=O)C(C)SC1=NC2=C(C=NN2C2=CC=CC=C2)C(=O)N1] | 34.7% | 48.1 ± 4.6% | 40.2 ± 4.8% | 33.4 ± 2.2% | 14.5 ± 3.4% |
| CCc1ccc(NC(=O)C2(N(C)C)Cc3ccccc3C2)cc1 [RU-0276433, CCC1=CC=C(NC(=O)C2(CC3=C(C2)C=CC=C3)N(C)C)C=C1] | 157% | 124 ± 10.1% | 186 ± 4.9% | 171 ± 9.3% | 312 ± 25.3% |

| SMILES | activity at 10 µM [1, 3] | activity at 10 µM [1, 4] | activity at 20 µM ([1]; pH 6.4, 250 mM NaCl, 6 days) | activity at 10 µM [2] | activity at 20 µM [2] |
| --- | --- | --- | --- | --- | --- |
| Cc1ccc(C(C)NC(=O)Nc2ccc(C#N)c(Cl)c2)o1 (stereo not shown) [RU-0272807, CC(NC(=O)NC1=CC(Cl)=C(C=C1)C#N)C1=CC=C(C)O1] | 160% | 113 ± 12.8% | 133 ± 5.6% | 90.5 ± 6.1% | 128 ± 12% |
| COc1ccc(OC)c(C2CCCN2C(=O)NCc2cccs2)c1 (stereo not shown) [RU-0273525, COC1=CC(C2CCCN2C(=O)NCC2=CC=CS2)=C(OC)C=C1] | 150% | 158 ± 14.1% | 232 ± 6.9% | 119 ± 11.1% | 184 ± 6.5% |
| CC(CCc1ccccc1)Nc1ncnc(-n2cccn2)c1N (stereo not shown) [RU-0203332, CC(CCC1=CC=CC=C1)NC1=C(N)C(=NC=N1)N1C=CC=N1] | 151% | 100 ± 2.9% | 135 ± 16.1% | 117 ± 5.3% | 182 ± 8.5% |
| CCc1nc(C(C#N)C(=O)/C=C/c2ccc(NC(C)=O)cc2)sc1C (stereo not shown) [RU-0204780, CCC1=C(C)SC(=N1)C(C#N)C(=O)\C=C\C1=CC=C(NC(C)=O)C=C1] | 158% | 112 ± 8.5% | 140 ± 12.3% | 127 ± 5.5% | 206 ± 16% |
| CCOC(=O)c1nnc(NC(=O)c2cc(Cl)cc(Cl)c2)s1 [RU-0203287, CCOC(=O)C1=NN=C(NC(=O)C2=CC(Cl)=CC(Cl)=C2)S1] | 174% | 118 ± 12.5% | 138 ± 17% | 99 ± 5.3% | 111 ± 11.8% |
| CC(C)Cc1cc(C(=O)N2CCOC(CCCc3ccccc3)C2)[nH]n1 (stereo not shown) [RU-0230474, CC(C)CC1=NNC(=C1)C(=O)N1CCOC(CCCC2=CC=CC=C2)C1] | 198% | 118 ± 12.7% | 229 ± 26.9% | 98.4 ± 7.5% | 172 ± 14.2% |
| COC(=O)Oc1sc2nc3ccccc3nc2c1N [RU-0193917, COC(=O)OC1=C(N)C2=C(S1)N=C1C=CC=CC1=N2] | 158% | 166 ± 15.7% | 184 ± 27% | 111 ± 4% | 179 ± 15% |
| CCOc1cc(F)ccc1NC(=O)Nc1cccc(C#N)c1 [RU-0273629, CCOC1=C(NC(=O)NC2=CC(=CC=C2)C#N)C=CC(F)=C1] | 170% | 203 ± 16.4% | 318 ± 21.4% | 188 ± 18% | 540 ± 65.6% |
| CCc1nnc(NC(=O)c2sc(CC(C)C)nc2C)s1 [RU-0274734, CCC1=NN=C(NC(=O)C2=C(C)N=C(CC(C)C)S2)S1] | 170% | 150.7 ± 1.2% | 178 ± 7.2% | 97.2 ± 4.2% | 102 ± 3.9% |
| Cc1nc(NS(=O)(=O)c2ccc(F)c(F)c2)n(-c2ccc(C#N)cc2)n1 [RU-0203361, CC1=NN(C(NS(=O)(=O)C2=CC(F)=C(F)C=C2)=N1)C1=CC=C(C=C1)C#N] | 152% | 121 ± 1.5% | 160 ± 15.7% | 119 ± 11.5% | 169 ± 13.4% |
| CCNC(=O)c1ccccc1OCc1nc(-c2ccc3c(c2)OCO3)no1 [RU-0257147, CCNC(=O)C1=C(OCC2=NC(=NO2)C2=CC3=C(OCO3)C=C2)C=CC=C1] | 154% | 92.6 ± 5.8% | 127 ± 7.2% | 82 ± 5.5% |  |
| CC(NC(=O)C1Cc2ccccc2O1)c1ccc(Cl)s1 (stereo not shown) [RU-0272776, CC(NC(=O)C1CC2=C(O1)C=CC=C2)C1=CC=C(Cl)S1] | 231% | 170 ± 3.6% | 192 ± 26.2% | 88.5 ± 5.6% | 105 ± 5.5% |
| CC(NC(=O)c1cc(Cl)ccc1NS(C)(=O)=O)c1ccc2c(c1)OCO2 (stereo not shown) [RU-0202213, CC(NC(=O)C1=C(NS(C)(=O)=O)C=CC(Cl)=C1)C1=CC2=C(OCO2)C=C1] | 195% | 152 ± 9.2% | 181 ± 5.7% | 89.3 ± 18.6% | 119 ± 13.2% |
| NC(=O)c1cc2c(cc1-c1cccc(C(F)(F)F)c1)OCO2 [RU-0234167, NC(=O)C1=CC2=C(OCO2)C=C1C1=CC=CC(=C1)C(F)(F)F] | 343% | 221 ± 6.7% | 383 ± 10.4% | 201 ± 15% | 291 ± 18.7% |
| COc1ccc2c(CC(=O)Nc3nc(CN4CCCCC4)cs3)coc2c1 [RU-0204291, COC1=CC2=C(C=C1)C(CC(=O)NC1=NC(CN3CCCCC3)=CS1)=CO2] | 167% | 99.2 ± 12.7% | 142 ± 13% | 104 ± 2.6% | 135 ± 13.2% |

Source: paper PMC8351955, “Targeting Mycobacterium tuberculosis response to environmental cues for the development of effective antitubercular drugs” (PLoS Biology, 2021)
